Assay results reported in patent US11964929B2, “Application of glutamine derivative in preparation of animal feed additive” (WISORIG TE[…]. LIMITED, priority 2018, dated 2024).

Key:
yellow broilers = conditions: 1-day-old yellow broilers, basal ration + 750 ppm, 20 days; for FCR (feed conversion ratio): ADFI/ADG
Procedure: The experiment was conducted with single-factor randomized design. 720 1-day-old yellow broilers with a similar average body weight of 50 g, was randomly divided into 16 groups, each group consisting of 3 replicates and equal numbers of males and females, and each replicate consisting of 15 yellow broilers. The chicken house and tools were sterilized before the experiment. During the experiment, the broilers were kept in separate regions in the same chicken house under the same feeding and management conditions. Basal ration mainly consisted of corn and soybean meal. During the entire process, each treatment group was not given other antioxidants or growth promoters. […] The experiment lasted for 20 days. The broilers were given ad libitum access to food and water, and feeds were provided twice every day. At the day when the broilers were 21-day old (withdrawing feed for 12 hours, without withdrawing water), taking each replicate as one unit, body weights of the broilers were measured for calculating average daily feed intake (ADFI, g/d per broiler), average daily weigh gain (ADG, g/d per broiler), and feed conversion ratio (FCR). Feed conversion ratio (FCR)=Average daily feed intake/Average daily weight gain

Grass carps = conditions: basal ration + 500 ppm, 8 weeks; for Feed coefficient: 580/(final−initial weight); for Weight gain rate: (final−initial)/initial×100; for Average final weight: restricted feeding
Procedure: Grass carps were used in this experiment, which is conducted in an aquaculture region in the Guangzhou Insighter experiment yard. Healthy grass carps with the same size were reared in large netcages for 4 weeks before the experiment. The grass carps were kept in small floating netcages during the experiment. The small netcages and netcages for acclimatization were both placed in a 3500 m^2 pond in the experiment yard. […] In the experiment, 520 grass carps, which had been starved for 1 day, were randomly divided into 13 groups, each group consisting of 4 replicates, and each replicate consisting of 10 grass carps. The grass carps were weighed, taking each replicate as a whole. Then they were randomly released to 52 netcages in which they were fed with different feeds. […] Feed restriction had been adopted during the experiment, and the feeding amount was adjusted once a week. The treatment and control groups were fed twice (7:30 and 15:30) every day, with their feeding levels (based on initial body weights) being identical to be a total amount of 580 g. The experiment lasted for 8 weeks.
Calculation: Weight gain rate (%)=(Average final weight−Average initial weight)/Average initial weight×100 Feed coefficient=580/(Average final weight−Average initial weight)

[1] = system: Duroc×Landrace×Yorkshire cross-bred bacon-type pigs; assay: Effect of the glutamine derivatives on the production performance of hogs (piglets), 28-day feeding; type: in vivo; conditions: 65-day-old pigs, basal ration + 800 ppm, 28 days; for FCR (feed conversion ratio): ADFI/ADG
Excerpt: 480 65-day-old Duroc×Landrace×Yorkshire cross-bred bacon-type pigs with similar body weight, were randomly divided into 16 groups, with 3 replications per group and 10 pigs (half of male and female) per replication. The pig pen and tools were sterilized before the experiment. […] The experiment lasted for 28 days.

SMILES	ADFI (average daily feed intake) (yellow broilers)	ADG (average daily weight gain) (yellow broilers)	FCR (feed conversion ratio) (yellow broilers)	Feed coefficient (Grass carps)	Weight gain rate (Grass carps)	Average final weight (Grass carps)	ADFI (average daily feed intake) [1]	ADG (average daily weight gain) [1]	FCR (feed conversion ratio) [1]
CCCCCCCCCC(=O)NC(CCC(=O)NCC)C(=O)O (stereo not drawn) [Compound 14]	31.8 g/d per broiler	14.0 g/d per broiler	2.27	1.81	70.70%	678 g	1582 g/d per piglet	621 g/d per piglet	2.548
CCNC(=O)CCC(NC(=O)c1ccc(O)cc1)C(=O)O (stereo not drawn) [Compound 12]	31.6 g/d per broiler	14.0 g/d per broiler	2.26	1.79	69.56%	692 g	1599 g/d per piglet	633 g/d per piglet	2.528
CCNC(=O)CCC(NC(=O)c1ccc(Cl)cc1)C(=O)O (stereo not drawn) [Compound 10]	32.2 g/d per broiler	14.5 g/d per broiler	2.22	1.81	72.34%	669 g	1607 g/d per piglet	657 g/d per piglet	2.508
CCNC(=O)CCC(NC(=O)c1ccccc1)C(=O)OCC (stereo not drawn) [Compound 6]	31.2 g/d per broiler	14.2 g/d per broiler	2.20	1.77	72.84%	681 g	1615 g/d per piglet	646 g/d per piglet	2.499
CCNC(=O)CCC(NC(=O)c1ccccc1)C(=O)[O-].CCNC(=O)CCC(NC(=O)c1ccccc1)C(=O)[O-].[Cu+2] (stereo not drawn) [Compound 8]	30.6 g/d per broiler	14.2 g/d per broiler	2.16				1670 g/d per piglet	671 g/d per piglet	2.488
CCNC(=O)CCC(NC(=O)c1ccccc1)C(=O)[O-].CCNC(=O)CCC(NC(=O)c1ccccc1)C(=O)[O-].[Zn+2] (stereo not drawn) [Compound 7]	31.7 g/d per broiler	14.5 g/d per broiler	2.18				1674 g/d per piglet	672 g/d per piglet	2.491
CCCC(=O)NC(CCC(=O)NCC)C(=O)O (stereo not drawn) [Compound 13]	31.3 g/d per broiler	13.7 g/d per broiler	2.28	1.83	70.42%	687 g	1609 g/d per piglet	627 g/d per piglet	2.566
CCCCNC(=O)CCC(NC(=O)c1ccccc1)C(=O)O (stereo not drawn) [Compound 2]	31.5 g/d per broiler	14.1 g/d per broiler	2.23	1.78	70.47%	690 g	1648 g/d per piglet	651 g/d per piglet	2.531
CCNC(=O)CCC(NC(=O)c1ccccc1)C(=O)[O-].CCNC(=O)CCC(NC(=O)c1ccccc1)C(=O)[O-].[Ca+2] (stereo not drawn) [Compound 9]	32.5 g/d per broiler	14.8 g/d per broiler	2.20				1636 g/d per piglet	652 g/d per piglet	2.511
CCNC(=O)CCC(NC(=O)c1ccccc1)C(=O)O (stereo not drawn) [Compound 1]	32.8 g/d per broiler	14.8 g/d per broiler	2.22	1.79	72.41%	678 g	1657 g/d per piglet	661 g/d per piglet	2.506
CCNC(=O)CCC(NC(=O)c1ccc(C)cc1)C(=O)O (stereo not drawn) [Compound 11]	30.8 g/d per broiler	13.8 g/d per broiler	2.24	1.80	70.73%	681 g	1592 g/d per piglet	634 g/d per piglet	2.512
O=C(NC(CCC(=O)N1CCCCC1)C(=O)O)c1ccccc1 (stereo not drawn) [Compound 5]	30.9 g/d per broiler	13.7 g/d per broiler	2.26	1.80	71.27%	678 g	1633 g/d per piglet	651 g/d per piglet	2.510
CCCCCCCCCCCCCC(=O)NC(CCC(=O)NCC)C(=O)O (stereo not drawn) [Compound 15]	32.4 g/d per broiler	14.6 g/d per broiler	2.22	1.80	70.73%	681 g	1670 g/d per piglet	650 g/d per piglet	2.571
